# Like-named read-outs stand apart in the source and are kept apart here.
# T1: human P450 51A1 (Homo sapiens, UniProt Q16850)
# T1 sequence (Q16850 1-509): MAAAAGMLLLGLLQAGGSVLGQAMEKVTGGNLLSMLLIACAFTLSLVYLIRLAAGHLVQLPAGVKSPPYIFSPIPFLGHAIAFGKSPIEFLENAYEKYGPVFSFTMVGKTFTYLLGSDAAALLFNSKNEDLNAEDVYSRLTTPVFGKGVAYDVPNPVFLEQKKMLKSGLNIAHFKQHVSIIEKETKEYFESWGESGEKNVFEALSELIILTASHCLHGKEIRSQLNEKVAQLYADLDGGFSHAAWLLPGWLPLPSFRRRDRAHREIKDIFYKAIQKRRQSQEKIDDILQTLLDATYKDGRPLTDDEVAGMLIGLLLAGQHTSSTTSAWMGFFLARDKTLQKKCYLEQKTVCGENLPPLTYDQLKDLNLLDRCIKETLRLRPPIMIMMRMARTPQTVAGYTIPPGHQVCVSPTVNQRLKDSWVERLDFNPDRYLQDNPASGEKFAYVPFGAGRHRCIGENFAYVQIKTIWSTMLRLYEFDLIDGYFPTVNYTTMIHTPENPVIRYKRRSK
# Legend:
# human P450 51A1 [1] = target: T1, human P450 51A1; experiment: Spectral (difference spectroscopy) Kd estimates of P450 51A1-sterol complexes; type: binding; parameters: made in house; host or cells: Escherichia coli
# Procedure: Kd values were estimated by difference spectroscopy. P450 51A1 (1.0 μM) was in each of two glass cuvettes (in 100 mM potassium phosphate buffer, pH 7.4) and a baseline was recorded (OLIS-Amino DW2a). Aliquots of a solution of each sterol–HPCD complex were added to the sample cuvette and an equivalent amount of HPCD was added to the reference cuvette, and spectra were recorded. The time between the collection of individual spectra was ∼3 min. The maximum absorbance difference (usually ΔA390-A418) was plotted versus the nominal concentration of added sterol, and the data were fit to hyperbolae in GraphPad Prism software (GraphPad, https://www.graphpad.com), using a quadratic equation to correct the ligand concentration for the enzyme-bound concentration (used as Y=B+(A/2)∗(1/E)∗((Kd+E+X)-sqrt((Kd + E+X)^∧2-(4∗E∗X)) in Prism software). The linear regression fits include the internal error estimates (SE).
# human P450 51A1 [2] = target: T1, human P450 51A1; experiment: Steady-state LC-UV assay of sterol oxidation to dihydro FF-MAS by reconstituted P450 51A1; details: oxidation to dihydro FF-MAS (epi-dihydro FF-MAS from epi substrate), 37 °C
# Procedure: Steady-state incubations (500 μl) were generally done at 37 °C with 0.025 μM P450 51A1, 0.10 μM NADPH-P450 reductase, 100 μM L-α-dilauroyl-sn-glycero-3-phosphocholine, 50 mM potassium phosphate buffer (pH 7.4), 10% (v/v) glycerol, and an indicated concentration of each sterol (in 45% (w/v) HPCD). […] The sterols (stored at 4 °C) were prepared as described above and were heated to 37 °C and sonicated prior to use. Sterol working stocks were diluted in HPCD to ensure a constant concentration of cyclodextrin in each reaction. […] Accordingly, all reactions were done with this concentration of glycerol.
# Reactions were preincubated (5 min, 37 °C) prior to initiation with an NADPH-regenerating system (0.5 mM NADP^+, 10 mM glucose 6-phosphate, and 2 μg ml^−1 glucose 6-phosphate dehydrogenase) ([60]) and were stopped after 5 min with the addition of CH2Cl2 (5 ml). (The NADPH-generating system, in addition to lower cost than NADPH, drives the reaction to avoid inhibition of the reductase by accumulated NADP^+). For the 14α-aldehyde, the times of preincubation and reaction were reduced (to 2 min and 1 min, respectively). The quenched mixture was centrifuged (2000g, 5 min), and 4 ml of the bottom (organic) layer was transferred to vials and brought to dryness under a stream of N2 gas. The dried residue was resuspended in CH3OH (100 μl) and was analyzed by UPLC using a 2.1 mm × 100 mm (1.7 μm) octadecylsilane (C18) column (held at 25 °C) and a Waters Acquity UPLC system. Samples (4 °C) were injected (10 μl) at a flow rate of 0.20 ml min^−1 using an isocratic mobile phase of CH3CN (only). The product (FF-MAS) was detected using a Waters Acquity photodiode array detector set at 250 nm (Fig. 4B). Data were processed using the MassLynx software (http://www.waters.com/waters/en_US/MassLynx-Mass-Spectrometry-Software-/nav.htm?cid=513164&locale=en_US), and the amount of product formed was calculated by comparison to a twelve-point dihydro FF-MAS standard curve. Determination of kcat and Km for each reaction was carried out by fitting the data to a Michaelis–Menten hyperbola, which was done using GraphPad Prism.
# Incubations were run in triplicate, and the mean values (±SD) were calculated and plotted. The linear regression fits include the Prism error estimates for internal fitting (SE).
# human P450 51A1 [3] = target: T1, human P450 51A1; experiment: Single-turnover rapid-quench kinetics of [3-3H]-dihydrolanosterol oxidation (radio-HPLC); type: biochemical; parameters: made in house; host or cells: Escherichia coli
# Procedure: All products were separated and quantified by radio-HPLC (Fig. S24).
# Samples (held at 4 °C) were injected (45 μl) onto a Nova-Pak 3.9 mm × 150 mm (4 μm) octadecylsilane (C18) HPLC column (held at 23 °C). The products were separated at a flow rate of 1.0 ml min^−1 using an isocratic mobile phase composed of CH3CN (only) as was done for the LC-UV assays (above). The eluate from the column was mixed (1:2, v-v) with FlowLogic U scintillation cocktail, and radioactivity (^3H) was detected on a β-RAM Model 5 system (IN/US, LabLogic) (Fig. S24). Product formation was assessed as the relative contribution of each peak (in CPM) to the summed peak area of substrate and product(s).
# The single-turnover experiments were performed using a KinTek rapid quench-flow apparatus (KinTek). This machine functions by forcing equal volumes (∼19 μl) of two separate solutions into a central mixing chamber, where the components are allowed to incubate for a predetermined period of time before an excess volume of quench solution (∼160 μl) stops the reaction and expels the mixture from the apparatus. […] After the predetermined incubation period, the reaction (37 °C) was quenched with HCl (1 M), and the mixture (∼200 μl) was collected into vials. The products of five identical reactions (time points) were combined and were extracted into CH2Cl2 (5 ml). An aliquot (4 ml) of the lower (organic) layer was removed into a fresh vial, and the extraction was repeated to maximize sample recovery. The pooled organic fraction (∼8 ml) was brought to dryness under a stream of N2 gas, and the residue was redissolved in 60 μl of CH3OH and transferred to LC vials for analysis.
# human P450 51A1 [4] = target: T1, human P450 51A1; experiment: Stopped-flow koff measurements of P450 51A1-sterol complexes with ketoconazole trap; type: binding; parameters: made in house; host or cells: Escherichia coli; details: 23 °C, 10 μM ketoconazole trap, 1 μM P450 51A1
# Procedure: All assays were done at 23 °C in an OLIS-RSM 1000 stopped-flow spectrophotometer, collecting data every 1 ms over a range of 332 to 565 nm with slit widths of 1.24 mm (8 nm bandpass) and gratings with 400 lines/mm and 500 nm blaze. One syringe contained 20 μM ketoconazole dissolved in 100 mM potassium phosphate buffer (pH 7.4). In a preliminary experiment in which this was mixed with an equal volume of 2 μM P450 51A1 (same buffer), the observed rate of binding (ΔA430) was 25 s^−1.
# P450 51A1 (2 μM) was premixed with an equivalent concentration of each of the sterols (in HPCD). Each of these solutions was placed in a drive syringe and rapidly mixed with 20 μM ketoconazole (yielding final concentrations of 1 μM P450 51A1 and 10 μM ketoconazole). The rate of the ΔA430-A390 change was used as the koff rate, that is, the rate at which the sterol left the P450 and allowed it to bind to the trap ligand ketoconazole.
# human P450 51A1 [5] = experiment: Kinetic modeling (KinTek Explorer) of the single-turnover time course
# Text: The initial koff rate constants used in fitting were the koff rates measured in the stopped-flow trap experiments (Fig. 9). All three oxidation reactions are irreversible, and thus k-2, k-4, and k-6 were set to zero.
# Data were imported into KinTek Explorer software (v. 11.01, KinTek, https://kintekcorp.com/software) ([63], [64]) as txt files and processed using an Apple computer (operating system 11.6.2).
# human P450 51A1 [6] = target: T1, human P450 51A1; experiment: Stopped-flow rate of ketoconazole binding to P450 51A1; parameters: made in house; host or cells: Escherichia coli; details: 10 μM ketoconazole, 1 μM P450 51A1 final
# [7] = substrate: CC(C)CCCC(C)[C@H]1CC[C@@]2(C)C3=C(CC[C@]12C)[C@@]1(C)CC[C@@H](O)C(C)(C)C1CC3; experiment: purified protein, by the assay type; details: other: oxidation to dihydro FF-MAS (epi-dihydro FF-MAS from epi substrate), 37 °C, pH 7.4
# Procedure: (§1) Steady-state incubations (500 μl) were generally done at 37 °C with 0.025 μM P450 51A1, 0.10 μM NADPH-P450 reductase, 100 μM L-α-dilauroyl-sn-glycero-3-phosphocholine, 50 mM potassium phosphate buffer (pH 7.4), 10% (v/v) glycerol, and an indicated concentration of each sterol (in 45% (w/v) HPCD). Due to the high turnover rate of the 14α-aldehyde, the P450 and NADPH-P450 reductase concentrations were reduced (to 0.01 μM and 0.04 μM, respectively), and the reaction volume was increased (to 1 ml) to maximize sensitivity. The sterols (stored at 4 °C) were prepared as described above and were heated to 37 °C and sonicated prior to use. Sterol working stocks were diluted in HPCD to ensure a constant concentration of cyclodextrin in each reaction. […] Accordingly, all reactions were done with this concentration of glycerol.
# (§2) Reactions were preincubated (5 min, 37 °C) prior to initiation with an NADPH-regenerating system (0.5 mM NADP^+, 10 mM glucose 6-phosphate, and 2 μg ml^−1 glucose 6-phosphate dehydrogenase) ([60]) and were stopped after 5 min with the addition of CH2Cl2 (5 ml). […] For the 14α-aldehyde, the times of preincubation and reaction were reduced (to 2 min and 1 min, respectively). The quenched mixture was centrifuged (2000g, 5 min), and 4 ml of the bottom (organic) layer was transferred to vials and brought to dryness under a stream of N2 gas. The dried residue was resuspended in CH3OH (100 μl) and was analyzed by UPLC using a 2.1 mm × 100 mm (1.7 μm) octadecylsilane (C18) column (held at 25 °C) and a Waters Acquity UPLC system. Samples (4 °C) were injected (10 μl) at a flow rate of 0.20 ml min^−1 using an isocratic mobile phase of CH3CN (only). The product (FF-MAS) was detected using a Waters Acquity photodiode array detector set at 250 nm (Fig. 4B). Data were processed using the MassLynx software (http://www.waters.com/waters/en_US/MassLynx-Mass-Spectrometry-Software-/nav.htm?cid=513164&locale=en_US), and the amount of product formed was calculated by comparison to a twelve-point dihydro FF-MAS standard curve. Determination of kcat and Km for each reaction was carried out by fitting the data to a Michaelis–Menten hyperbola, which was done using GraphPad Prism.
# [8] = substrate: CC(C)CCCC(C)[C@H]1CC[C@@]2(C=O)C3=C(CC[C@]12C)[C@@]1(C)CC[C@H](O)C(C)(C)C1CC3; experiment: purified protein, by the assay type; details: other: oxidation to dihydro FF-MAS (epi-dihydro FF-MAS from epi substrate), 37 °C, pH 7.4
# Procedure: as §1, §2
# [9] = substrate: CC(C)CCCC(C)[C@H]1CC[C@@]2(C)C3=C(CC[C@]12C)[C@@]1(C)CC[C@H](O)C(C)(C)C1CC3; experiment: purified protein, by the assay type; details: pH 7.4
# [10] = substrate: CC(C)CCCC(C)[C@H]1CC[C@@]2(CO)C3=C(CC[C@]12C)[C@@]1(C)CC[C@H](O)C(C)(C)C1CC3; experiment: purified protein, by the assay type; details: other: oxidation to dihydro FF-MAS (epi-dihydro FF-MAS from epi substrate), 37 °C, pH 7.4
# Procedure: as §1, §2
molecule,measurement,setting,value
"CC(C)CCCC(C)[C@H]1CC[C@@]2(C)C3=C(CC[C@]12C)[C@@]1(C)CC[C@@H](O)C(C)(C)C1CC3 (stereo partly drawn) [epi-dihydrolanosterol, epi-Dihydrolanosterol]",Kd,human P450 51A1 [1],14 nM
same,kcat,human P450 51A1 [2],0.42 ± 0.03 s⁻¹
"CC(C)CCC[C@@H](C)[C@H]1CC=C2C3=C(CC[C@@]21C)[C@@]1(C)CC[C@H](O)C(C)(C)[C@@H]1CC3 [dihydro FF-MAS, 24,25-dihydro FF-MAS]",concentration in single-turnover reaction,"human P450 51A1 [3]; time 0.05 s, start 7 µM dihydrolanosterol",0 µM
same,concentration in single-turnover reaction,human P450 51A1 [3]; time 0.1 s,0 µM
same,concentration in single-turnover reaction,human P450 51A1 [3]; time 0.15 s,0.2821 µM
same,concentration in single-turnover reaction,human P450 51A1 [3]; time 0.2 s,0.4249 µM
same,concentration in single-turnover reaction,human P450 51A1 [3]; time 0.3 s,0.7518 µM
same,concentration in single-turnover reaction,human P450 51A1 [3]; time 0.4 s,1.2019 µM
same,concentration in single-turnover reaction,human P450 51A1 [3]; time 0.6 s,2.506 µM
same,concentration in single-turnover reaction,human P450 51A1 [3]; time 0.8 s,3.0184 µM
same,concentration in single-turnover reaction,human P450 51A1 [3]; time 1 s,4.0537 µM
same,concentration in single-turnover reaction,human P450 51A1 [3]; time 1.2 s,4.494 µM
same,concentration in single-turnover reaction,human P450 51A1 [3]; time 1.6 s,4.8181 µM
same,concentration in single-turnover reaction,human P450 51A1 [3]; time 2 s,5.2031 µM
same,concentration in single-turnover reaction,human P450 51A1 [3]; time 3 s,5.8863 µM
same,concentration in single-turnover reaction,human P450 51A1 [3]; time 4 s,6.6353 µM
same,concentration in single-turnover reaction,human P450 51A1 [3]; time 7 s,7 µM
same,Kd,"human P450 51A1 [1]; 1.0 μM P450 51A1, quadratic fit, read-out: Kd",1400 nM
same,koff,human P450 51A1 [4],2 s⁻¹
same,k^+ of sterol binding to P450 51A1 (kon) used for fitting,human P450 51A1 [5]; all kon set at this value,2e+06 M⁻¹ s⁻¹
same,k^- of sterol binding to P450 51A1 (koff) used for fitting,human P450 51A1 [5]; optimized model,2.0 s⁻¹
CC(=O)N1CCN(c2ccc(OCC3COC(Cn4ccnc4)(c4ccc(Cl)cc4Cl)O3)cc2)CC1 (centres unmarked) [ketoconazole],pseudo-first-order observed rate of binding,human P450 51A1 [6],25 s⁻¹
human P450 51A1 (Homo sapiens) (protein) MAAAAGMLLLGLLQAGGSVLGQAMEKVTGGNLLSMLLIACAFTLSLVYLIRLAAGHLVQLPAGVKSPPYIFSPIPFLGHAIAFGKSPIEFLENAYEKYGPVFSFTMVGKTFTYLLGSDAAALLFNSKNEDLNAEDVYSRLTTPVFGKGVAYDVPNPVFLEQKKMLKSGLNIAHFKQHVSIIEKETKEYFESWGESGEKNVFEALSELIILTASHCLHGKEIRSQLNEKVAQLYADLDGGFSHAAWLLPGWLPLPSFRRRDRAHREIKDIFYKAIQKRRQSQEKIDDILQTLLDATYKDGRPLTDDEVAGMLIGLLLAGQHTSSTTSAWMGFFLARDKTLQKKCYLEQKTVCGENLPPLTYDQLKDLNLLDRCIKETLRLRPPIMIMMRMARTPQTVAGYTIPPGHQVCVSPTVNQRLKDSWVERLDFNPDRYLQDNPASGEKFAYVPFGAGRHRCIGENFAYVQIKTIWSTMLRLYEFDLIDGYFPTVNYTTMIHTPENPVIRYKRRSK,Km,[7],2.0 ± 0.4 µM
same,Km,[8],5.4 ± 0.7 µM
same,kcat,[8],1.7 ± 0.1 s⁻¹
same,kcat/Km,"[9]; other: conversion to dihydro FF-MAS, isotope effect comparison",1.3 (±0.2) × 10^5 M^−1 s^−1
same,Km,"[9]; other: oxidation to dihydro FF-MAS (epi-dihydro FF-MAS from epi substrate), 37 °C",5.0 ± 0.6 µM
same,Km,[10],4.3 ± 0.4 µM
same,kcat,[10],0.67 ± 0.03 s⁻¹

# — PMC10285260, “Processive kinetics in the three-step lanosterol 14α-demethylation reaction catalyzed by human cytochrome P450 51A1” (The Journal of Biological Chemistry, 2023)
